Laboratory results published in the supplement of paper PMC11061612.

Key:
[1] = tested on: U-118-MG (Low Grade Glioma); assay: Bliss excess, mean over the matrix (fraction); higher = more synergy
Method in brief: (§1)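 Bliss excess equals the observed combination effect minus the expected value EA + EB − EA·EB, where EA and EB are the effects of each agent alone. Combination Emax is the second-highest inhibition within the matrix. Inhibition was scaled from CellTiter-Glo 2.0 luminescence, with 0 set by vehicle wells and 1 by blank wells, after 72 hours of two-drug dosing of cells plated in 1536-well plates.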

HCC38 (Breast Carcinoma) = assay: as above
Method in brief: as §1

[2] = tested on: SKN-3 (Head and Neck Carcinoma); assay: as above
Method in brief: as §1

[3] = tested on: NOMO-1 (Acute Myeloid Leukemia); assay: as above
Method in brief: as §1

[4] = tested on: SW948 (Colorectal Carcinoma); assay: as above
Method in brief: as §1

[5] = tested on: NCI-H1688 (Small Cell Lung Carcinoma); assay: as above
Method in brief: as §1

[6] = tested on: ETK-1 (Biliary Tract Carcinoma); assay: as above
Method in brief: as §1

[7] = tested on: D-283MED (Other Solid Carcinomas); assay: as above
Method in brief: as §1

[8] = tested on: MES-SA (Other Solid Carcinomas); assay: as above
Method in brief: as §1

[9] = tested on: RCC10RGB (Kidney Carcinoma); assay: as above
Method in brief: as §1

[10] = tested on: SW48 (Colorectal Carcinoma); assay: as above
Method in brief: as §1

[11] = tested on: GDM-1 (Acute Myeloid Leukemia); assay: as above
Method in brief: as §1

EW-22 (Ewing's Sarcoma) = assay: as above
Method in brief: as §1

HuO9 (Osteosarcoma) = assay: as above
Method in brief: as §1

[12] = tested on: 647-V (Bladder Carcinoma); assay: combination Emax (second highest fraction inhibited in the dose matrix, 72 h); higher = more inhibition; extreme values may be limits of the assay
Method in brief: as §1

[13] = tested on: SLVL (B-Cell Non-Hodgkin's Lymphoma); assay: as above
Method in brief: as §1

[14] = tested on: SNG-M (Endometrial Carcinoma); assay: as above
Method in brief: as §1

[15] = tested on: MES-SA (Other Solid Carcinomas); assay: as above
Method in brief: as §1

[16] = tested on: HCC1143 (Breast Carcinoma); assay: as above
Method in brief: as §1

MSTO-211H (Mesothelioma) = assay: as above
Method in brief: as §1

Row | Compound | Bliss excess [1] | Bliss excess (HCC38 (Breast Carcinoma)) | Bliss excess [2] | Bliss excess [3] | Bliss excess [4] | Bliss excess [5] | Bliss excess [6] | Bliss excess [7] | Bliss excess [8] | Bliss excess [9] | Bliss excess [10] | Bliss excess [11] | Bliss excess (EW-22 (Ewing's Sarcoma)) | Bliss excess (HuO9 (Osteosarcoma)) | combination Emax [12] | combination Emax [13] | combination Emax [14] | combination Emax [15] | combination Emax [16] | combination Emax (MSTO-211H (Mesothelioma))
1 | NC1(C(=O)N[C@@H](CCO)c2ccc(Cl)cc2)CCN(c2ncnc3[nH]ccc23)CC1 [Capivasertib] + Cn1cnc2c(F)c(Nc3ccc(Br)cc3Cl)c(C(=O)NOCCO)cc21 [Selumetinib] (first compound max 10 µM, 7x7, partner max 10 µM) | 0.0071 | 0.0116 | -0.0759 | 0.0099 | -0.0554 | 0.0549 | 0.0555 | 0.0855 | -0.0017 | -0.0305 | -0.0453 | 0.072 | -0.0255 | -0.0116 | 0.3 | 0.806 | 0.648 | 0.496 | 0.317 | 0.379
2 | Cc1nc(Nc2ncc(C(=O)Nc3c(C)cccc3Cl)s2)cc(N2CCN(CCO)CC2)n1 [Dasatinib] + CC(=O)Nc1cccc(-n2c(=O)n(C3CC3)c(=O)c3c(Nc4ccc(I)cc4F)n(C)c(=O)c(C)c32)c1 [Trametinib] (first compound max 2 µM, 7x7, partner max 1 µM) | -0.0736 | -0.0277 | 0.004 | -0.126 | -0.008 | -0.0122 | 0.0226 | -0.0475 | -0.0311 | -0.0719 | 0.225 | -0.102 | -0.0457 | 0.0175 | 0.483 | 0.663 | 0.798 | 0.221 | 0.657 | 0.747
3 | COc1cccc2c1C(=O)c1c(O)c3c(c(O)c1C2=O)C[C@@](O)(C(=O)CO)C[C@@H]3O[C@H]1C[C@H](N)[C@H](O)[C@H](C)O1 [Doxorubicin] + Cc1cc2ncnn2cc1Nc1ncc2c(n1)n(C1CCOCC1)c(=O)n2C [AZD7648] (first compound max 1 µM, 7x7, partner max 10 µM) | 0.0909 | 0.0206 | 0.0045 | 0.128 | 0.0438 | 0.0172 | 0.0878 | 0.0461 | 0.0696 | -0.0449 | 0.0535 | 0.112 | 0.061 | 0.0731 | 0.958 | 0.975 | 0.767 | 0.826 | 0.518 | 0.813
4 | COc1cc2ncnc(Nc3ccc(F)c(Cl)c3)c2cc1OCCCN1CCOCC1 [Gefitinib] + CC(C)n1c(=O)n(C)c2cnc3cc(F)c(-c4ccc(OCCCN5CCCCC5)nc4)cc3c21 [AZD1390] (first compound max 10 µM, 7x7, partner max 0.3 µM) | -0.0498 | -0.0485 | -0.0688 | -0.0347 | -0.0215 | -0.0626 | -0.11 | -0.0426 | -0.0458 | -0.0999 | -0.0516 | -0.0833 | -0.0252 | -0.058 | 0.0854 | 0.185 | 0.229 | 0.0714 | 0.253 | 0.0343
5 | CS(=O)(=O)CCNCc1ccc(-c2ccc3ncnc(Nc4ccc(OCc5cccc(F)c5)c(Cl)c4)c3c2)o1 [Lapatinib] + C[C@@H](Oc1cc(-c2cnn(C3CCNCC3)c2)cnc1N)c1c(Cl)ccc(F)c1Cl [Crizotinib] (first compound max 10 µM, 7x7, partner max 10 µM) | -0.0194 | -0.0049 | -0.0299 | -0.0755 | -0.0834 | -0.0764 | -0.0596 | -0.0496 | -0.0302 | -0.0298 | -0.0662 | -0.0027 | -0.0241 | -0.069 | 0.906 | 0.65 | 0.955 | 0.813 | 0.875 | 0.263
6 | CC(=O)c1c(C)c2cnc(Nc3ccc(N4CCNCC4)cn3)nc2n(C2CCCC2)c1=O [Palbociclib] + CC1(C)CCC(CN2CCN(c3ccc(C(=O)NS(=O)(=O)c4ccc(NCC5CCOCC5)c([N+](=O)[O-])c4)c(Oc4cnc5[nH]ccc5c4)c3)CC2)=C(c2ccc(Cl)cc2)C1 [Venetoclax] (first compound max 10 µM, 7x7, partner max 1 µM) | 0.0308 | -0.0437 | -0.07 | -0.0032 | -0.089 | -0.0505 | -0.0207 | 0.0132 | 0.0594 | -0.0012 | -0.0251 | 0.0557 | 0.0129 | 0.0056 | 0.098 | 0.325 | 0.424 | 0.361 | 0.129 | 0.0513
